Results published in patent US20230203485A1, “METHODS FOR MODULATING MHC-I EXPRESSION AND IMMUNOTHERAPY USES THEREOF” (Dana-Farber Cancer Institute, Inc., priority 2020, published 2023).

Tested on: class I antigen presentation gene expression in MCC cell lines
Test: RNA-seq / DESeq2 differential expression of MCC cell lines at baseline and after IFN-γ stimulation
Format: cell-based, human
Details: 11 MCC cell lines, baseline vs IFNγ, negative LFC = upregulation in IFNγ-treated
Method: FIG. 2A comprises RNA-seq heatmaps of class I antigen presentation gene expression in MCC lines and controls.
FIG. 2B is a volcano plot of differentially expressed genes (genes below FDR cutoff 0.01 are shown in yellow) between baseline and IFN-γ-treated MCC cell lines. Differential expression analysis was performed using DESeq2, and negative LFC indicates increased expression in +IFN-γ samples. IFN genes are highlighted in red.
RNA samples were first assessed for quality using the Agilent Bioanalyzer (DV200 metric). One hundred ng of RNA were used as the input for first strand cDNA synthesis using Superscript III reverse transcriptase and Illumina's TruSeq RNA Access Sample Prep Kit. Synthesis of the second strand of cDNA was followed by indexed adapter ligation with UMI (unique molecular index) adaptors. Subsequent PCR amplification enriched for adapted fragments. Amplified libraries were quantified, normalized, pooled, and hybridized with exome targeting oligos. Following hybridization, bead clean-up, elution and PCR was performed to prepare library pools for sequencing on Illumina flowcell lanes. Transcriptomes were sequenced to a coverage of at least 50 million reads in pairs.
Raw fastq files for fibroblast and keratinocyte control lines were downloaded from SRA using R Bioconductor package SRAdb (Mayakonda et al. (2018) supra; Zhu et al. (2013) BMC Bioinformatics 14 (1): 1-4) using accession codes SRP126422 (4 replicates from control samples ‘NN’) and SRP131347 (6 replicates with condition: control and genotype: control). These fastq files, along with those for the mkl1 and waga cell lines, were aligned using STAR version 2.7.3a (Dobin et al. (2013) Bioinformatics 29 (1): 15-21), using index genome reference file downloaded from ftp.ebi.ac.uk/pub/databases/gencode/Gencode_human/release_19/GRCh37.p13.genome.fa.gz, transcript annotation file downloaded from data.broadinstitute.org/snowman/hg19/star/gencode.v19.annotation.gtf, and with the following options: --twopassMode Basic, --outSAMstrandField intronMotif, --alignIntronMax 1000000, --alignMatesGapMax 1000000, --sjdbScore 2, --outSAMtype BAM Unsorted, --outSAMattributes NH HI NM MD AS XS, --outFilterType BySJout, --outSAMunmapped Within, --genomeLoad NoSharedMemory, --outFilterScoreMinOverLread 0, --outFilterMatchNminOverLread 0, --outFilterMismatchNmax 999, and outFilterMultimapNmax 20. Duplicates were marked with picard MarkDuplicates version 2.22.0-SNAPSHOT.
RNA-sequencing bam files for MCC tumor and cell line samples were downloaded from the Broad Genomics Firecloud/Terra platform using the Google Cloud Storage command line tool gsutil version 4.5 (github.com/GoogleCloudPlatform/gsutil/).
Gene counts were obtained from bam files using featureCounts version 2.0.0 (doi.org/10.1093/bioinformatics/btt656). Very lowly expressed genes with average count across samples less than 1 were excluded from analysis. Between-sample distance metrics were computed using the Euclidean distance on the vectors of variance-stabilized counts obtained from the vst function in the DESeq2 R Bioconductor package ([…]; Love et al. (2014) Genome Biology 15 (12): 550).
Differential expression analysis was carried out between (1) viral positive and viral negative samples (adjusting for cell line or tumor as a covariate), (2) cell line and tumor samples (adjusting for viral status as a covariate), and (3) IFNγ plus and minus samples (adjusting for viral status as a covariate) using the negative binomial GLM Wald test of DESeq2, where significance was assessed using the p-values adjusted for multiple comparisons under default settings. To account for potential global gene expression differences among sample groups, RUVg (Risso et al. (2014) […] 32 (9): 896-902) was used to estimate latent factors of unwanted variation from the list of housekeeping genes downloaded from www.tau.ac.il/˜elieis/HKG/HK_genes.txt. […]

Q: What does the source list for “IFN-y: type II interferon, recombinant human, used to treat MCC cells”?
A: log2FoldChange PLCH1 (ENSG00000114805.12): −3.192; log2FoldChange PLSCR1 (ENSG00000188313.8): −1.918; log2FoldChange PSMA1 (ENSG00000129084.13): −0.53; log2FoldChange PSMA5 (ENSG00000143106.8): −0.7265; log2FoldChange PSMB8 (ENSG00000204264.4): −4.624; log2FoldChange PSMB8-AS1 (ENSG00000204261.4): −4.829; log2FoldChange PSMB9 (ENSG00000240065.3): −8.037; log2FoldChange RAB19 (ENSG00000146955.6): −3.348; log2FoldChange RALB (ENSG00000144118.9): −1.199; log2FoldChange RARRES3 (ENSG00000133321.6): −9.075; log2FoldChange RASGRP3 (ENSG00000152689.13): −3.804; log2FoldChange RCN1 (ENSG00000049449.4): −0.8151; log2FoldChange RNASET2 (ENSG00000026297.11): −1.4; log2FoldChange RNF19B (ENSG00000116514.12): −0.8512; log2FoldChange RPS6KA2-AS1 (ENSG00000231654.1): −4.029; log2FoldChange RSAD2 (ENSG00000134321.7): −4.639; log2FoldChange RTP4 (ENSG00000136514.2): −9.766; log2FoldChange RUFY4 (ENSG00000188282.8): −4.154; log2FoldChange SAMD9L (ENSG00000177409.7): −9.221; log2FoldChange SCYL3 (ENSG00000000457.9): −0.6381; log2FoldChange SERPING1 (ENSG00000149131.11): −10.06; log2FoldChange SERPINI2 (ENSG00000114204.10): −4.132; log2FoldChange SLC15A3 (ENSG00000110446.5): −6.048; log2FoldChange SMCO3 (ENSG00000179256.2): −4.85; log2FoldChange SP100 (ENSG00000067066.12): −6.178; log2FoldChange SP110 (ENSG00000135899.12): −5.912; log2FoldChange SP140 (ENSG00000079263.14): −4.071; log2FoldChange SP140L (ENSG00000185404.12): −4.749; log2FoldChange SPATA1 (ENSG00000122432.12): −1.828; log2FoldChange SRD5A3-AS1 (ENSG00000249700.4): −1.935; log2FoldChange STAT1 (ENSG00000115415.14): −4.434; log2FoldChange STAT2 (ENSG00000170581.9): −2.028; log2FoldChange SYNJ2 (ENSG00000078269.9): −1.182; log2FoldChange TAP1 (ENSG00000168394.9): −6.326; log2FoldChange TAP2 (ENSG00000204267.9): −4.845; log2FoldChange TAPBP (ENSG00000231925.7): −2.025; log2FoldChange TAPBPL (ENSG00000139192.7): −2.548; log2FoldChange TCAF2 (ENSG00000170379.15): −3.033; log2FoldChange TDRD7 (ENSG00000196116.6): −0.8648; log2FoldChange TLR3 (ENSG00000164342.8): −6.019; log2FoldChange TMEM108-AS1 (ENSG00000251011.1): −3.649; log2FoldChange TMEM140 (ENSG00000146859.6): −7.381; log2FoldChange TNFRSF14 (ENSG00000157873.13): −3.995; log2FoldChange TNFSF10 (ENSG00000121858.6): −4.43; log2FoldChange TRIM5 (ENSG00000132256.14): −4.923; log2FoldChange TRIM21 (ENSG00000132109.8): −5.586; log2FoldChange TRIM22 (ENSG00000132274.11): −9.394; log2FoldChange TRIM26 (ENSG00000234127.4): −0.6803; log2FoldChange TRIM56 (ENSG00000169871.8): −2.411; log2FoldChange UBA7 (ENSG00000182179.6): −5.004; log2FoldChange UBE2L6 (ENSG00000156587.11): −4.982; log2FoldChange UBR2 (ENSG00000024048.6): −0.9247; log2FoldChange USP33 (ENSG00000077254.10): −0.3836; log2FoldChange USP42 (ENSG00000106346.7): −0.5211; log2FoldChange WDR49 (ENSG00000174776.6): −4.564; log2FoldChange ZC3HAV1 (ENSG00000105939.8): −1.2; log2FoldChange (ACP5 ENSG00000102575.6): −3.911; log2FoldChange (B2M ENSG00000166710.13): −3.927; log2FoldChange (BCO1 ENSG00000135697.5): −3.705; log2FoldChange (BST2 ENSG00000130303.8): −9.567; log2FoldChange (C19orf38 ENSG00000214212.4): −2.581; log2FoldChange (C19orf66 ENSG00000130813.13): −3.602; log2FoldChange (CAPN3 ENSG00000092529.18): −1.639; log2FoldChange (CCDC194 ENSG00000269720.1): −5.08; log2FoldChange (CCL8 ENSG00000108700.4): −4.991; log2FoldChange (CCL25 ENSG00000131142.9): −5.742; log2FoldChange (CEACAM1 ENSG00000079385.17): −6.01; log2FoldChange (CIITA ENSG00000179583.13): −10.08; log2FoldChange (CX3CL1 ENSG00000006210.6): −2.039; log2FoldChange (DGLUCY ENSG00000133943.16): −1.417; log2FoldChange (DHX58 ENSG00000108771.8): −3.063; log2FoldChange (DLGAP1-AS5 ENSG00000261520.1): −7.006; log2FoldChange (DOCK9 ENSG00000088387.13): −1.102; log2FoldChange (DRAM1 ENSG00000136048.9): −2.646; log2FoldChange (ENSG00000225131.1 (symbol NA)): −1.967; log2FoldChange (ENSG00000238045.5 (symbol NA)): −1.974; log2FoldChange (ENSG00000238528.1 (symbol NA)): −1.287; log2FoldChange (ENSG00000258733.1 (symbol NA)): −3.393
